Assay results from ChEMBL document CHEMBL5625189, “Discovery of new diaryl ether inhibitors against Mycobacterium tuberculosis targeting the minor portal of InhA” (Eur J Med Chem, 2023).
Values after ≈ are worked out from the molar mass of the structure shown.

Tests used:
Assay type in all cases: functional
Conditions in all cases: 432 h, time 18 day
[1] = system: Mycobacterium tuberculosis; assay: Antimycobacterial activity against Mycobacterium tuberculosis H37Ra harbouring pMV261 plasmid assessed as inhibition of bacterial growth incubated for 18 days by drop dilution method
[2] = system: Mycobacterium tuberculosis; assay: Antimycobacterial activity against Mycobacterium tuberculosis H37Ra harbouring pVV2 plasmid assessed as inhibition of bacterial growth incubated for 18 days by drop dilution method
[3] = system: Mycobacterium tuberculosis; assay: Antimycobacterial activity against Mycobacterium tuberculosis H37Ra harbouring pVV2 plasmid overexpressing katG assessed as inhibition of bacterial growth incubated for 18 days by drop dilution method
[4] = system: Mycobacterium tuberculosis; assay: Antimycobacterial activity against Mycobacterium tuberculosis H37Ra harbouring pMV261 plasmid overexpressing InhA assessed as inhibition of bacterial growth incubated for 18 days by drop dilution method
[5] = system: Mycobacterium tuberculosis; assay: Antimycobacterial activity against Mycobacterium tuberculosis H37Ra harbouring pVV16 plasmid overexpressing hadABC assessed as inhibition of bacterial growth incubated for 18 days by drop dilution method

Structure (SMILES)	MIC [1]	MIC [2]	MIC [3]	MIC [4]	MIC [5]
CCCCCCc1ccc(Oc2ccc(Cn3cc(CNc4ccc([N+](=O)[O-])c5nonc45)nn3)cc2)c(O)c1	2.5 µM (≈ 1.36 µg/mL)	2.5 µM (≈ 1.36 µg/mL)	2.5 µM (≈ 1.36 µg/mL)	2.5 µM (≈ 1.36 µg/mL)	2.5 µM (≈ 1.36 µg/mL)
CCN(CC)c1ccc2c(OCc3cn(Cc4ccc(Oc5ccccc5)c(O)c4)nn3)cc(=O)oc2c1	6.25 µM (≈ 3.2 µg/mL)	6.25 µM (≈ 3.2 µg/mL)	6.25 µM (≈ 3.2 µg/mL)	> 25 µM	6.25 µM (≈ 3.2 µg/mL)
Cc1cc(=O)oc2cc(OCc3cn(Cc4ccc(Oc5ccccc5)c(O)c4)nn3)ccc12	1.25 µM (≈ 0.569 µg/mL)	1.25 µM (≈ 0.569 µg/mL)	1.25 µM (≈ 0.569 µg/mL)	12.5 µM (≈ 5.69 µg/mL)	1.25 µM (≈ 0.569 µg/mL)
